Measured values taken from patent US20050234113A1, “Antioxidant and radical scavenging activity of synthetic analogs of desferrithiocin” (University of Florida Research Foundation, Inc., priority 2002, published 2005).
Marks after values point to notes of the source that are not given here.

Assays:
[1] = test system: acetic acid-induced colitis; assay: Acetic acid-induced colitis in rats, densitometric image analysis of colonic damage; type: in vivo; details: for Damage (%): 650 μmol kg^−1 intracolonically 30 min before 4% acetic acid, mean ± standard deviation
Protocol: The ligands were administered to the rats intracolonically as a suspension or solution in distilled water (2 mL) at a dose of 650 μmol kg^−1. The drug solutions were made fresh for each experiment. ROWASA®, the pharmaceutical preparation which contains 5-ASA (2 mL, 66.7 mg mL^−1) was given at a dose of 2318 μmol kg^−1. Control rats received distilled water (2 mL), administered intracolonically.
Animal care and experimental procedures were approved by the Institutional Animal Care and Use Committee. Colitis was induced by a modification of published methods. Briefly, the rats were anesthetized with sodium pentobarbital, 55 mg kg^−1 intraperitoneally. The abdomen was shaved and prepared for surgery. A midline incision was made, and the cecum and proximal colon were exteriorized. A reversible suture was placed at the junction of the cecum and proximal colon. The colon was rinsed with saline (10 mL), and the fluid and intestinal contents were gently expressed out the rectum. A gum-based rectal plug was inserted. The compound of interest, or distilled water in the control animals (2 mL), was injected intracolonically just distal to the ligature. The cecum and proximal colon were returned to the abdominal cavity; the compound was allowed to remain in the gut for 30 min. Then, the cecum and proximal colon were reexteriorized. The rectal plug was removed, and the drug was gently expressed out of the colon. Acetic acid (4%, 2 mL) was injected into the proximal colon over a 15-20-second time period. The acid was allowed to remain in the gut until one minute had passed (i.e., 40-45 seconds after the end of the acid administration). The no acid control rats received distilled water (2 mL), which was administered in the same manner as was the acetic acid. Air (10 mL) was then injected into the proximal colon to expel the acid or water. The cecal/proximal colon ligature was removed, the gut was returned to the abdominal cavity, and the incisions were closed. The animals were allowed to recover overnight and were sacrificed 24 hr later. The entire length of the colon was removed and assessed for damage both densitometrically and biochemically.
Gross damage was quantitated using Photoshop-based image analysis (version 5.0, Adobe Systems, Mountain View, Calif., USA) on an Apple iMac computer. The Magic Wand tool in the Select menu of Photoshop was used to place the cursor on an area of obvious damage. The tolerance level of the Magic Wand tool was set at 30. The damaged areas were automatically selected by using the Similar command in the Select menu. Then, the Eyedropper tool was used to determine the range of the damage in the highlighted areas. Individual colon images were copied to a blank Photoshop page. The Magic Wand tool, with a tolerance set to 100, was used to select all of the pixels in the colon sample. Then, the Histogram tool, which generates a graph in which each vertical line represents the number of pixels associated with a brightness level, was selected in the Image menu. The Red channel was then selected; the darker (damaged areas) appear on the left side of the histogram and the lighter (normal) areas are on the right side. The cursor was then placed on the histogram, the color range determined in an earlier step was selected, and the number of pixels encompassing that range and the percent damage were quantified automatically.
Two means were employed to assess the damage to the colon in the presence and absence of ligand, computer-based image analysis and colonic MPO measurement. The densitometric method removes much of the subjectivity involved in the simple scoring approaches. A digital image of the prepared colonic tissue is taken, and a clearly damaged segment is highlighted on the screen. Once the computer identifies all other segments of the intestine with the same or greater damage, a pixel number is generated; this number makes it possible to calculate the percentage of damaged intestine.

[2] = Quenching of the ABTS radical cation
[3] = Table 1, A734, six-minute reaction, pH 7.4, 1.25 to 15 μM
[4] = Table 3, A734, 6-min reaction, values marked b are the inventors' unpublished results

| Structure (SMILES) | Damage (%) [1] | protection against acetic acid-induced colonic damage (in words) ([1]; intracolonic, image analysis and MPO assay) | Slope × 10^3 OD units/μM (ABTS radical cation quenching) [2, 3] | Slope × 10^3 OD units/μM (ABTS radical cation quenching) [2, 4] |
| --- | --- | --- | --- | --- |
| O=C(O)[C@H]1CSC(c2ccc(O)cc2O)=N1 [4′-(HO)-DADMDFT, 4′-hydroxydesazadesmethyldesferrithiocin] | 57 ± 15% | ineffective | −101.6 × 10^3 OD units/μM | −102^b × 10^3 OD units/μM |
| CC(=O)N(O)CCCCCNC(=O)CCC(=O)N(O)CCCCCNC(=O)CCC(=O)N(O)CCCCCN [DFO, Desferrioxamine B, reference compound] | 39 ± 15% | – | −136.8 × 10^3 OD units/μM | −137^b × 10^3 OD units/μM |
